{"source": "patent US5466689A", "about": "“Morpholine derivatives and their use” (Takeda Chemical Industries, Ltd., priority 1993, dated 1995)", "key": {"Substance-P": {"test_system": "Substance-P", "assay": "Action of Substance-P for inhibiting biting response by its administration at subarachnoid space", "format": "in vivo, Jcl:ICR mice", "settings": "mice; dosage 10 μg/mouse; SP 10 ng/5 μl/mouse at subarachnoid space; bitings counted for one minute", "procedure": "Action of Substance-P for inhibiting biting response by its administration at subarachnoid space\nFive-week old male Jcl:ICR mice (10 animals per group) were employed. Dorsal cutaneous incisions were made under anesthesia at least one hour before the experiments. Substance-P (SP) was administered in an amount of 10 ng/5 μl/mouse at the subarachnoid space of the spinal cord. Then the test animals started to bite themselves at the abdomen alternately. The number of bitings was counted for one minute immediately after the SP administration. The values thus obtained were made indexes of pseudo pain reflexes caused by SP.\nTest drugs were dissolved in a solution (Tween 80:ethanol:physiological saline=20:10:70) together with a given amount of SP. The solutions thus prepared were administered to test animals. In the case of oral administration, 5% suspension of gum arabica was employed, which was administered at 30 minutes before the SP administration.\nThe inhibition rate (%) of each sample was calculated by the following formula. Inhibition rate (%)=(number of counts in the control group-numberof counts in each sample)/(number of counts in the control group)×100.\nAnd, 50% inhibition dose (ID50) was calculated from the primary linear regression line of dose-dependent curve."}, "Writhing": {"test_system": "Writhing", "assay": "Acetic acid-writhing method", "format": "in vivo, Slc:ICR mice", "settings": "mice, 0.6% acetic acid i.p. 30 min later, writhing during 20 minutes", "procedure": "Acetic acid-writhing method\nMale Slc:ICR mice of four-week old (10 animals per group) were employed. Test compounds were orally administered. Thirty minutes later, purified water containing 0.6% acetic acid was injected intraperitoneally (0.1 ml/10 g body weight). Writhing shown by the test animals during 20 minutes was observed on individual animals.\nOn each test animal, the inhibition rate against the average response times in the control group was calculated. The test compound was administered as a 5% suspension of gum arabica."}, "[1]": {"assay": "acute toxicity (LD50), oral, rats", "settings": "rat, in vivo, orally administered to rats", "description": "Therefore, the compounds of this invention and their salts can be used for prophylaxis or therapy of diseases including pain due to bone diseases (arthritis, rheumatic fever, osteoporosis), pain induced by cancer or the like, lumbago, postoperative pain, neuralgia, pain induced by inflammatory diseases, pain caused by tooth extraction, tooth-ache and pain due to burn trauma, as well as neurosis (e.g. anxiety neurosis, depression, mental disorder), somnipathy or the like. Since the compounds of this invention act on a neurotransmitting system such as dopamine or norepinephrine, they can be used also as prophylactic and therapeutic drugs for circulatory diseases (e.g. hypertension)."}}, "data": [{"smiles": "CCN1CCO[C@]2(C)c3c(OC)ccc4[nH]cc(c34)C[C@@H]12", "note": "(relative stereo) [Example 2, Trans-4,6,6a,8,9,10a-hexahydro-7-ethyl-1-methoxy-10a-methyl-7H-indole[3,4-gh][1.4]benzoxazine]", "values": [{"measurement": "Inhibition rate (%), antagonistic action to Substance-P (biting response)", "setting": "Substance-P", "value": 100, "unit": "%"}, {"measurement": "Inhibition rate (%), analgesic action (writhing)", "setting": "Writhing; 25 mg/kg,p.o.", "value": 99, "unit": "%"}, {"measurement": "LD50", "setting": "[1]", "value": "≥ 100", "unit": "mg/kg"}]}, {"smiles": "CCN1CCO[C@]2(C)c3cccc4[nH]cc(c34)C[C@@H]12", "note": "(relative stereo) [Example 8, Trans-4,6,6a,8,9,10a-hexahydro-7-ethyl-10a-methyl-7H-indolo[3,4-gh][1,4]benzoxazine]", "values": [{"measurement": "Inhibition rate (%), antagonistic action to Substance-P (biting response)", "setting": "Substance-P", "value": 65, "unit": "%"}, {"measurement": "Inhibition rate (%), analgesic action (writhing)", "setting": "Writhing; 12.5 mg/kg,p.o.", "value": 61, "unit": "%"}]}, {"smiles": "C=C[C@]12OCCN(CC)[C@@H]1Cc1c[nH]c3cccc2c13", "note": "(relative stereo) [Example 1, Trans-4,6,6a,8,9,10a-hexahydro-7-ethyl-10a-vinyl-7H-indolo[3,4-gh][1.4]benzoxazine]", "values": [{"measurement": "Inhibition rate (%), antagonistic action to Substance-P (biting response)", "setting": "Substance-P", "value": 80, "unit": "%"}]}]}
